Consider 20 compounds from US20100093811A1 (priority 2007, published 2010).

pIC50: −log10 of the molar value. Counter-ions that a name gives are not always drawn. Like-named read-outs stand apart in the source and are kept apart here.

For one experiment, the target named is wild-type HIV-1 protease (Human immunodeficiency virus type 1 group M subtype B, UniProt P04585). Briefly: Assay for inhibition of microbial expressed HIV protease. The experiment is classed as biochemical. In short, it runs like this: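 Inhibition taken from HPLC (C18) product peak areas after phosphoric acid quench. Reaction: 440 micromolar Val-Ser-Gln-Asn-(betanapthyl)Ala-Pro-Ile-Val peptide, 5 pM E. coli-made protease, 1 h at 30° C, following 30 min room-temperature inhibitor preincubation in pH 5.5 acetate/NaCl/BSA buffer.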

In experiment [1] the test system is acute HIV infection of T-lymphoid cells. Briefly: Assay for inhibition of HIV replication (spread assay). The experiment is classed as cell-based, HIV-1. Particulars: read-out: Spread - IC95. How it is done:
• Assay for Inhibition of HIV Replication
Assays for the inhibition of acute HIV infection of T-lymphoid cells were conducted in accordance with Vacca, J. P. et al., Proc. Natl. Acad. Sci. USA 1994, 91: 4096.

[2] abbreviates: wild-type HIV-1 protease expressed in E. coli, peptide substrate, pH 5.5, read-out: Enzyme Inhibition - IC50.
Setting [3] is: Human immunodeficiency virus 1, T-lymphoid.

As to `COC(=O)N[C@H](C(=O)N[C@@H](C)CCC[C@@H](CO)N(C)S(=O)(=O)c1ccc(N)cc1)C(c1ccccc1)c1ccccc1` [Example G4, N-{(1S,5S)-5-[[(4-aminophenyl)sulfonyl](methyl)amino]-6-hydroxy-1-methylhexyl}-Nα-(metboxycarbonyl)-β-phenyl-L-phenylalaninamide], at wild-type HIV-1 protease (setting [2]), the pIC50 was 9.39. For the same compound, in experiment [1] (setting [3]), the IC95 was determined as 41 nM.
For `COC(=O)N[C@H](C(=O)N[C@H](CCC[C@@H](CO)N(CCC(C)C)S(=O)(=O)c1ccc(CO)c(F)c1)C1CC1)C(c1ccc(F)cc1)c1ccc(F)cc1` [Example E2, N-{(1R,5S)-1-cyclopropyl-5-[{[3-fluoro-4-(hydroxymethyl)phenyl]sulfonyl}(3-methylbutyl)amino]-6-hydroxyhexyl}-4-fluoro-β-(4-fluorophenyl)-Nα-(methoxycarbonyl)-L-phenylalaninamide], in that order: 10.77 and 39 nM.
In the same order, the values of `CC[C@@H](CCC[C@@H](CO)N(CCC(C)C)S(=O)(=O)c1ccc(N)cc1)NC(=O)[C@@H](NC(=O)OCc1ccncc1)C(c1ccccc1)c1ccccc1` [Example F10, N-{(1S,55)-5-[[(4-aminophenyl)sulfonyl](3-methylbutyl)amino]-1-ethyl-6-hydroxyhexyl}-β-phenyl-Nα-[(pyridin-4-ylmethoxy)carbonyl]-L-phenylalaninamide] are 11.00 and 17 nM.
For `COC(=O)N[C@H](C(=O)N[C@H](CCC[C@@H](CO)N(C(C)C)S(=O)(=O)c1ccc(N)cc1)C(C)C)C(c1ccccc1)c1ccccc1` [Example F14, N-{(1R,5S)-5-[[(4-aminophenyl)sulfonyl](isopropyl)amino]-6-hydroxy-1-isopropylhexyl}-Nα-(methoxycarbonyl)-β-phenyl-L-phenylalaninamide], in that order: 8.75 and 148 nM.
With `CCC[C@@H](CCC[C@@H](CO)N(CCC(C)C)S(=O)(=O)c1ccc(N)cc1)NC(=O)[C@@H](NC(=O)OC)C(c1ccccc1)c1ccccc1` [Example D6, N-{(1S,5S)-5-[[(4-aminophenyl)sulfonyl](3-methylbutyl)amino]-6-hydroxy-1-propylhexyl}-Nα-(methoxycarbonyl)-β-phenyl-L-phenylalaninamide], on wild-type HIV-1 protease (setting [2]), the pIC50 was 9.97. In experiment [1] (setting [3]), the IC95 is 56 nM.
As to `CC[C@@H](CCC[C@@H](CO)N(CCC(C)C)S(=O)(=O)c1ccc(CO)cc1)NC(=O)[C@@H](NC)C(c1ccccc1)c1ccccc1` [Example J27, N-{(1S,5S)-1-ethyl-6-hydroxy-5-[{[4-(hydroxymethyl)phenyl]sulfonyl}(3-methylbutyl)amino]hexyl}-Nα-methyl-β-phenyl-L-phenylalaninamide], at wild-type HIV-1 protease (setting [2]), the pIC50 is 10.60. For the same compound, in experiment [1] (setting [3]), the IC95 stood at 6 nM.
As to `COC(=O)N[C@H](C(=O)N[C@H](CCC[C@@H](CO)N(CCC(C)C)S(=O)(=O)c1ccc(CO)cc1)C1CC1)C(c1ccccc1)c1ccccc1` [Example J8, N-{(1R,5S)-1-cyclopropyl-6-hydroxy-5-[{[4-(hydroxymethyl)phenyl]sulfonyl}(3-methylbutyl)amino]hexyl}-Nα-(methoxycarbonyl)-β-phenyl-L-phenylalaninamide], the pIC50 at wild-type HIV-1 protease (setting [2]) is 10.82. In experiment [1] (setting [3]), the IC95 is 10 nM.
For `COC(=O)N[C@@H](Cc1ccccc1Br)C(=O)N[C@H](CCC[C@@H](CO)N(C(C)C)S(=O)(=O)c1ccc(CO)cc1)C1CC1` [Example J37, 2-bromo-N-{(1R,5S)-1-cyclopropyl-6-hydroxy-5-[{[4-(hydroxymethyl)phenyl]sulfonyl}(isopropyl)amino]hexyl}-Nβ-(methoxycarbonyl)-L-phenylalaninamide], the negative-log IC50 (pIC50) at wild-type HIV-1 protease (setting [2]) was 9.23. Further, the IC95 in experiment [1] (setting [3]) is 37 nM.
In turn, `COC(=O)N[C@H](C(=O)N[C@H](CCC[C@@H](CO)N(C)S(=O)(=O)c1ccc(N)cc1)C(F)(F)F)C(c1ccccc1)c1ccccc1` [Example H6, N-[(1R,5S)-5-[[(4-aminophenyl)sulfonyl](methyl)amino]-6-hydroxy-1-(trifluoromethyl)hexyl]-Nα-(methoxycarbonyl)-β-phenyl-L-phenylalaninamide] showed a pIC50 against wild-type HIV-1 protease of 8.99. Besides, in experiment [1] (setting [3]), the IC95 was found to be 138 nM.
For `CC[C@@H](CCC[C@@H](CO)N(CC(C)C)S(=O)(=O)c1ccc(N)cc1)NC(=O)[C@@H](NC(=O)OC)C(c1ccccc1)c1ccccc1` [Example D11, N-{(1S,5S)-5-[[(4-aminophenyl)sulfonyl](isobutyl)amino]-1-ethyl-6-hydroxyhexyl}-Nα-(methoxycarbonyl)-β-phenyl-L-phenylalaninamide], the pIC50 at wild-type HIV-1 protease (setting [2]) was 9.96. In addition, the IC95 in experiment [1] (setting [3]) amounted to 18 nM.
For `COC(=O)N[C@H](C(=O)N[C@H](CCC[C@@H](CO)N(CCC(C)C)S(=O)(=O)c1ccc(CO)cc1)C1CC1)C(c1ccc(F)cc1)c1ccc(F)cc1` [Example J16, N-{(1R,55)-1-cyclopropyl-6-hydroxy-5-[{[4-(hydroxymethyl)phenyl]sulfonyl}(3-methylbutyl)amino]hexyl}-4-fluoro-β-(4-fluorophenyl)-Nα-(methoxycarbonyl)-L-phenylalaninamide], in that order: 11.00 and 25 nM.
For `COC(=O)N[C@@H](Cc1ccccc1Cl)C(=O)N[C@H](CCC[C@@H](CO)N(CC(C)C)S(=O)(=O)c1ccc(CO)cc1)C1CC1` [Example I1, 2-chloro-N-{(1R,5S)-1-cyclopropyl-6-hydroxy-5-[{[4-(hydroxymethyl)phenyl]sulfonyl}-(isobutyl)amino]hexyl}-Nα-(methoxycarbonyl)-L-phenylalaninamide], in that order: 9.20 and 155 nM.
With `CC[C@@H](CCC[C@@H](CO)N(CCC(C)C)S(=O)(=O)c1ccc(N)cc1)NC(=O)[C@H](Cc1ccccc1Br)NC(=O)OC` [Example F3, N-{(1S,5S)-5-[[(4-aminophenyl)sulfonyl](3-methylbutyl)amino]-1-ethyl-6-hydroxyhexyl}-2-bromo-Nα-(methoxycarbonyl)-L-phenylalaninamide], the pIC50 on wild-type HIV-1 protease (setting [2]) is 9.71. Further, the IC95 in experiment [1] (setting [3]) is 25 nM.
In the same order, the values of `CCCN([C@H](CO)CCC[C@H](CC)NC(=O)[C@H](Cc1cccc2ccccc12)NC(=O)OC)S(=O)(=O)c1ccc(CO)cc1` [Example J41, methyl [(1S)-2-({(1S,5S)-1-ethyl-6-hydroxy-5-[{[4-(hydroxymethyl)phenyl]sulfonyl}(propyl)amino]hexyl}amino)-1-(1-naphthylmethyl)-2-oxoethyl]carbamate] are 9.25 and 54 nM.
On to `COC(=O)N[C@H](C(=O)N[C@H](CCC[C@@H](CO)N(C(C)C)S(=O)(=O)c1ccc(CO)cc1)C(F)(F)F)C(c1ccccc1)c1ccccc1` [Example J40, N-[(1R,5S)-6-hydroxy-5-[{[4-(hydroxymethyl)phenyl]sulfonyl}(isopropyl)amino]-1-(trifluoromethyl)hexyl]-Nα-(methoxycarbonyl)-β-phenyl-L-phenylalaninamide], for which the pIC50 at wild-type HIV-1 protease (setting [2]) is 10.82. Also, in experiment [1] (setting [3]), the IC95 came out at 34 nM.
In turn, `CC(C)CCN([C@H](CO)CCC[C@@H](NC(=O)[C@@H](N)C(c1ccc(F)cc1)c1ccc(F)cc1)C1CC1)S(=O)(=O)c1ccc(CO)cc1` [Example J17, N-{(1R,5S)-1-cyclopropyl-6-hydroxy-5-[{[4-(hydroxymethyl)phenyl]sulfonyl}(3-methylbutyl)amino]hexyl}-4-fluoro-β-(4-fluorophenyl)-L-phenylalaninamide hydrochloride] gave a pIC50 at wild-type HIV-1 protease of 11.00. Moreover, the IC95 in experiment [1] (setting [3]) worked out at 6 nM.
On to `COC(=O)N[C@H](C(=O)N[C@H](CCC[C@@H](CO)N(CCC(C)C)S(=O)(=O)c1ccc([C@H](C)O)cc1)C1CC1)C(c1ccc(F)cc1)c1ccc(F)cc1` [Example J3, N-{(1R,5S)-1-cyclopropyl-6-hydroxy-5-[({4-[(1S)-1-hydroxyethyl]phenyl}sulfonyl)(3-methylbutyl)amino]hexyl}-4-fluoro-β-(4-fluorophenyl)-Nα-(methoxycarbonyl)-L-phenylalaninamide], for which the pIC50 at wild-type HIV-1 protease (setting [2]) was 10.96. The IC95 in experiment [1] (setting [3]) was 25 nM.
Consider `COC(=O)N[C@H](C(=O)N[C@@H](C)CCC[C@@H](CO)N(CCCF)S(=O)(=O)c1ccc(CO)cc1)C(c1ccccc1)c1ccccc1` [Example G14, N-[(1S,5S)-5-((3-fluoropropyl){[4-(hydroxymethyl)phenyl]sulfonyl}amino)-6-hydroxy-1-methythexyl]-Nα-(methoxycarbonyl)-β-phenyl-L-phenylalaninamide], for which the pIC50 at wild-type HIV-1 protease (setting [2]) is 11.00. For the same compound, the IC95 in experiment [1] (setting [3]) is 16 nM.
Regarding “Methyl {(1S)-1-(diphenylmethyl)-2-[((5S)-6-hydroxy-2-methyl-5-{(3-methylbutyl) [(4-methylphenyl)sulfonyl]amino}hexylamino]-2-oxoethyl}carbamate [Example C1]”, the pIC50 at wild-type HIV-1 protease (setting [2]) is 9.70. Moreover, the IC95 in experiment [1] (inhibition of HIV-1 replication, 10% FBS) worked out at 193 nM.
With `CC[C@@H](CCC[C@@H](CO)N(CCC(C)C)S(=O)(=O)c1ccc(CO)cc1)NC(=O)[C@@H](NC(=O)OC)C(c1ccc(Cl)cc1)c1ccc(Cl)cc1` [Example J44, 4-chloro-β-(4-chlorophenyl)-N-{(1S,5S)-1-ethyl-6-hydroxy-5-[{[4-(hydroxymethyl)phenyl]sulfonyl}(3-methylbutyl)amino]hexyl}-Nα-(metboxycarbonyl)-L-phenylalaninamide], the pIC50 on wild-type HIV-1 protease (setting [2]) was 10.09. Further, the IC95 in experiment [1] (setting [3]) came out at 126 nM.
